Measured values published in paper PMC4281207, “Dr-FtsA, an Actin Homologue in Deinococcus radiodurans Differentially Affects Dr-FtsZ and Ec-FtsZ Functions In Vitro” (PLoS ONE, 2014).

How the values were obtained:
[1] = molecular target: T1, Dr-FtsZ (Deinococcus radiodurans, UniProt Q9RWN5); experiment: malachite green Pi release; [α[…]]-GTP TLC; format: biochemical; settings: PIPES pH 7.5, 50 mM KCl, 2 mM MgCl2, 1 mM GTP (0.5 mM in TLC assay), 37 °C
T1 construct: 42 kDa
T1 sequence (Q9RWN5 1-371): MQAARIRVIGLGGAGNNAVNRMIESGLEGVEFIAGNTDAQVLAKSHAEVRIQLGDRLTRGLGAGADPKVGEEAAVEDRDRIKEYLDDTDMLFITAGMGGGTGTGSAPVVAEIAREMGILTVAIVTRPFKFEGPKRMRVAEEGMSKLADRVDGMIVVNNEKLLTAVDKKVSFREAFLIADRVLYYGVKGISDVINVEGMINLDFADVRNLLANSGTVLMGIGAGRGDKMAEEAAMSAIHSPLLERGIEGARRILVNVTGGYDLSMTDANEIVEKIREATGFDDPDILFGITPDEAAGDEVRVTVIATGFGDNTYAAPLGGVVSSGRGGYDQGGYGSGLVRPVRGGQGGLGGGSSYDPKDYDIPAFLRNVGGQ

[2] = molecular target: T1, Dr-FtsZ; experiment: stimulation of GTPase activity; [α[…]]-GTP TLC; format: biochemical; settings: 0.5 mM ATP, 0.5 mM GTP, 2 mM MgCl2, PIPES pH 7.5, 37 °C; activator, site not known; ATP not hydrolysed
[3] = molecular target: T2, Dr-FtsA (Deinococcus radiodurans, UniProt Q9RWN6); experiment: circular dichroism; transmission electron microscopy of polymers; format: binding; settings: 10 µM ATP (CD) or 1 mM ATP (TEM), 37 °C; 25 mM PIPES pH 7.5, 50 mM KCl, with or without 5 mM MgCl2 (TEM); ATP not hydrolysed
T2 construct: full-length from pBADDFtsA (pBAD/HisA), expressed in E. coli TOP10; His tag removed; 54 kDa
T2 sequence (Q9RWN6 1-517): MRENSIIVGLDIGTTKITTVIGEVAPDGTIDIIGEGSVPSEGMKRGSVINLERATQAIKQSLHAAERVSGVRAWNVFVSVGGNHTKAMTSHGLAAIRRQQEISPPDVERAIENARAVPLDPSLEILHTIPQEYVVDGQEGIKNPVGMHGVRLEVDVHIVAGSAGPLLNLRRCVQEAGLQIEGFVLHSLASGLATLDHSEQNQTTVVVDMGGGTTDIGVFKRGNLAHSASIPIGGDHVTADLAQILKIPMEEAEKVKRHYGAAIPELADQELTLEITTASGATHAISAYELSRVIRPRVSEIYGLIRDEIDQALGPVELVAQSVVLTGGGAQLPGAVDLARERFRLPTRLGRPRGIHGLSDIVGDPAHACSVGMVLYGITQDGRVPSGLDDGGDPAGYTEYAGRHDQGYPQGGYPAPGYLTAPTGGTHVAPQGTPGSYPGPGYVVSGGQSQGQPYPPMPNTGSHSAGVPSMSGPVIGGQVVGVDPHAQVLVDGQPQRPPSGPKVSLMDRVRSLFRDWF

Structure (SMILES) | malachite green Pi release; [α32P]-GTP TLC [1] | stimulation of GTPase activity; [α32P]-GTP TLC [2] | circular dichroism; transmission electron microscopy of polymers [3]
Nc1nc2c(ncn2[C@@H]2O[C@H](COP(=O)(O)OP(=O)(O)OP(=O)(O)O)[C@@H](O)[C@H]2O)c(=O)[nH]1 [GTP] | GTPase activity of Dr-FtsZ was stimulated in the presence of Dr-FtsA |  | 
Nc1ncnc2c1ncn2[C@@H]1O[C@H](COP(=O)(O)OP(=O)(O)OP(=O)(O)O)[C@@H](O)[C@H]1O [ATP] |  | the GTPase activity of Dr-FtsZ was stimulated in the presence of ATP (Fig. 2C) | had the correct secondary structure assignment, and interacted with ATP in solution
